Results from patent US9169224B2, “Piperazinyl and piperidinyl ureas as modulators of fatty acid amide hydrolase” (Janssen Pharmaceutica NV, priority 2004, dated 2015).

What follows are molecules tested against FAAH (Homo sapiens (Human), UniProt O00519) (assay: Assay Method 1: FAAH assay, T84 cell homogenate, 3H-anandamide hydrolysis). Details: 3H-AEA tracer 200 nM, 1 h at rt.
Assay type: biochemical
Experimental: T84 frozen pellets (contents of 1-4×15 cm culture dishes) were homogenized in 300 mL of FAAH assay buffer (125 mM Tris, 1 mM EDTA, 0.2% glycerol, 0.02% Triton X-100, 0.4 mM Hepes, pH 9). The assay mixture was prepared from 50 μL of the cell homogenate, 10 μL of the test compound, and 40 μL of anandamide [1-3H-ethanolamine] (^3H-AEA; Perkin-Elmer, 10.3 Ci/mmol), which was added last, for a final tracer concentration of 200 nM. The reaction mixture was incubated at rt for 1 hour (h). During the incubation, 96-well Multiscreen filter plates (catalog number MAFCNOB50; Millipore, Bedford, Mass., USA) were loaded with 25 μL of activated charcoal (Multiscreen column loader, catalog number MACL09625, Millipore) and washed once with 100 μL of MeOH. Also during the incubation, 96-well DYNEX MicroLite plates (catalog number NL510410) were loaded with 100 μL of MicroScint40 (catalog number 6013641, Packard Bioscience, Meriden, Conn., USA). After the 1 h incubation, 60 μL of the reaction mixture were transferred to the charcoal plates, which were then assembled on top of the DYNEX plates using Centrifuge Alignment Frames (catalog number MACF09604, Millipore). The unbound, labeled ethanolamine was centrifuged through to the bottom plate (5 min at 2000 rpm), which was preloaded with the scintillant, as described above. The plates were sealed and left at rt for 1 h before counting on a Hewlett Packard TopCount.

FAAH, sequence (O00519 whole entry): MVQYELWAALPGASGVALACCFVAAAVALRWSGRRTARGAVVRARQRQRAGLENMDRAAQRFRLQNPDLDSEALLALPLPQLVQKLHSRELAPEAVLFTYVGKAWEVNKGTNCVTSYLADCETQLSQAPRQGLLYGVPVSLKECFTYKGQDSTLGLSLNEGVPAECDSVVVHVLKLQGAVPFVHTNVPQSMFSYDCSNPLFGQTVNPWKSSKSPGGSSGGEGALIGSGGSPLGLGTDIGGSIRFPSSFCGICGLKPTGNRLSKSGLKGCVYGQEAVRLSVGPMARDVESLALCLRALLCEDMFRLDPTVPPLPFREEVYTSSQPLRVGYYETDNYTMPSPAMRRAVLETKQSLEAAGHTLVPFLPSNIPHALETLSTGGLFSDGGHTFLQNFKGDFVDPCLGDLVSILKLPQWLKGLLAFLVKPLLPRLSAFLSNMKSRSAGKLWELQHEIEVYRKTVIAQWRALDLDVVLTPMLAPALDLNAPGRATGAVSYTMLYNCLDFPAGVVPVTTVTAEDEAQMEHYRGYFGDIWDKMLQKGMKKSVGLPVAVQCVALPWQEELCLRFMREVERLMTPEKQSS

SMILES | IC50 [nM]
O=C(Nc1ccccc1)N1CCN(Cc2cc3ccccc3c3ccccc23)CC1 [Example 67, 4-Phenanthren-9-ylmethyl-piperazine-1-carboxylic acid phenylamide] | 8000
O=C(Nc1ccccc1)N1CCN(Cc2cnc3ccc(Cl)cc3c2)CC1 [Example 69, 4-(6-Chloro-quinolin-3-ylmethyl)-piperazine-1-carboxylic acid phenylamide] | 23
O=C(Nc1ccccc1)N1CCN(Cc2cccc(-c3ccccc3)c2)CC1 [Example 70, 4-Biphenyl-3-ylmethyl-piperazine-1-carboxylic acid phenylamide] | 410
O=C(Nc1ccccc1)N1CCN(Cc2cccc(Br)n2)CC1 [Example 71, 4-(6-Bromo-pyridin-2-ylmethyl)-piperazine-1-carboxylic acid phenylamide] | 6000
O=C(Nc1ccccc1)N1CCN(Cc2cccc(S(=O)(=O)c3ccc(Cl)cc3)c2)CC1 [Example 72, 4-[3-(4-Chloro-benzenesulfonyl)-benzyl]-piperazine-1-carboxylic acid phenylamide] | 110
O=C(Nc1ccccc1)N1CCN(Cc2ccc3cc[nH]c3c2)CC1 [Example 73, 4-(1H-Indol-6-ylmethyl)-piperazine-1-carboxylic acid phenylamide] | 29
O=C(Nc1ccccc1)N1CCN(Cc2ccc(Oc3ccccc3)cc2)CC1 [Example 74, 4-(4-Phenoxy-benzyl)-piperazine-1-carboxylic acid phenylamide] | 2000
Cc1cccc2cc(CN3CCN(C(=O)Nc4ccccc4)CC3)c(Cl)nc12 [Example 75, 4-(2-Chloro-8-methyl-quinolin-3-ylmethyl)-piperazine-1-carboxylic acid phenylamide] | 24
Cn1ccc2ccc(CN3CCN(C(=O)Nc4ccccc4)CC3)cc21 [Example 76, 4-(1-Methyl-1H-indol-6-ylmethyl)-piperazine-1-carboxylic acid phenylamide] | 350
O=C(Nc1ccccc1)N1CCN(Cc2ccc(OCc3ccccc3)cc2)CC1 [Example 77, 4-(4-Benzyloxy-benzyl)-piperazine-1-carboxylic acid phenylamide] | 32
O=C(Nc1ccccc1)N1CCN(Cc2cccc(Oc3cc(Cl)cc(Cl)c3)c2)CC1 [Example 78, 4-[3-(3,5-Dichloro-phenoxy)-benzyl]-piperazine-1-carboxylic acid phenylamide] | 5000
O=C(Nc1ccccc1)N1CCN(Cc2ccc3c(c2)Cc2ccccc2-3)CC1 [Example 79, 4-(9H-Fluoren-2-ylmethyl)-piperazine-1-carboxylic acid phenylamide] | 8000
CCn1c2ccccc2c2cc(CN3CCN(C(=O)Nc4ccccc4)CC3)ccc21 [Example 80, 4-(9-Ethyl-9H-carbazol-3-ylmethyl)-piperazine-1-carboxylic acid phenylamide] | 330
O=C(Nc1ccccc1)N1CCN(Cc2ccc(/C=C/c3ccccc3)cc2)CC1 [Example 81, 4-(4-Styryl-benzyl)-piperazine-1-carboxylic acid phenylamide] | 6000
O=C(Nc1ccccc1)N1CCN(Cc2ccc(Cl)c(C(F)(F)F)c2)CC1 [Example 82, 4-(4-Chloro-3-trifluoromethyl-benzyl)-piperazine-1-carboxylic acid phenylamide] | 80
Cc1cc(CN2CCN(C(=O)Nc3ccccc3)CC2)c(C)n1-c1cccc(C(F)(F)F)c1 [Example 83, 4-[2,5-Dimethyl-1-(3-trifluoromethyl-phenyl)-1H-pyrrol-3-ylmethyl]-piperazine-1-carboxylic acid phenylamide] | 480
O=C(Nc1ccccc1)N1CCN(Cc2ccccc2Br)CC1 [Example 84, 4-(2-Bromo-benzyl)-piperazine-1-carboxylic acid phenylamide] | 2500

SMILES | IC50 [nM]
O=C(Nc1cccc(F)c1)N1CCN(Cc2ccc(Br)c(Br)c2)CC1 [Example 85, 4-(3,4-Dibromo-benzyl)-piperazine-1-carboxylic acid (3-fluoro-phenyl)-amide] | 19
O=C(Nc1ccc(F)cc1)N1CCN(Cc2ccc(Br)c(Br)c2)CC1 [Example 86, 4-(3,4-Dibromo-benzyl)-piperazine-1-carboxylic acid (4-fluoro-phenyl)-amide] | 21
COc1cccc(NC(=O)N2CCN(Cc3ccc(Br)c(Br)c3)CC2)c1 [Example 87, 4-(3,4-Dibromo-benzyl)-piperazine-1-carboxylic acid (3-methoxy-phenyl)-amide] | 48
Cc1cccc(NC(=O)N2CCN(Cc3ccc(Br)c(Br)c3)CC2)c1 [Example 88, 4-(3,4-Dibromo-benzyl)-piperazine-1-carboxylic acid m-tolylamide] | 100
O=C(Nc1ccccc1F)N1CCN(Cc2ccc(Br)c(Br)c2)CC1 [Example 89, 4-(3,4-Dibromo-benzyl)-piperazine-1-carboxylic acid (2-fluoro-phenyl)-amide] | 22
COc1ccc(NC(=O)N2CCN(Cc3ccc(Br)c(Br)c3)CC2)cc1 [Example 90, 4-(3,4-Dibromo-benzyl)-piperazine-1-carboxylic acid (4-methoxy-phenyl)-amide] | 75
COc1ccccc1NC(=O)N1CCN(Cc2ccc(Br)c(Br)c2)CC1 [Example 91, 4-(3,4-Dibromo-benzyl)-piperazine-1-carboxylic acid (2-methoxy-phenyl)-amide] | 130
O=C(Nc1cccc(Cl)c1)N1CCN(Cc2ccc(Br)c(Br)c2)CC1 [Example 92, 4-(3,4-Dibromo-benzyl)-piperazine-1-carboxylic acid (3-chloro-phenyl)-amide] | 240
O=C(Nc1ccccc1Cl)N1CCN(Cc2ccc(Br)c(Br)c2)CC1 [Example 93, 4-(3,4-Dibromo-benzyl)-piperazine-1-carboxylic acid (2-chloro-phenyl)-amide] | 460
Cc1ccc(NC(=O)N2CCN(Cc3ccc(Br)c(Br)c3)CC2)cc1 [Example 94, 4-(3,4-Dibromo-benzyl)-piperazine-1-carboxylic acid p-tolylamide] | 470
O=C(Nc1ccc(Cl)cc1)N1CCN(Cc2ccc(Br)c(Br)c2)CC1 [Example 95, 4-(3,4-Dibromo-benzyl)-piperazine-1-carboxylic acid (4-chloro-phenyl)-amide] | 500
Cc1ccccc1NC(=O)N1CCN(Cc2ccc(Br)c(Br)c2)CC1 [Example 96, 4-(3,4-Dibromo-benzyl)-piperazine-1-carboxylic acid o-tolylamide] | > 10000
O=C(Nc1cccc(F)c1)N1CCN(Cc2cnc3ccccc3c2)CC1 [Example 97, 4-Quinolin-3-ylmethyl-piperazine-1-carboxylic acid (3-fluoro-phenyl)-amide] | 120
O=C(Nc1ccccc1Cl)N1CCN(Cc2cnc3ccccc3c2)CC1 [Example 99, 4-Quinolin-3-ylmethyl-piperazine-1-carboxylic acid (2-chloro-phenyl)-amide] | 1600
O=C(Nc1cccc(Cl)c1)N1CCN(Cc2cnc3ccccc3c2)CC1 [Example 100, 4-Quinolin-3-ylmethyl-piperazine-1-carboxylic acid (3-chloro-phenyl)-amide] | 200
O=C(Nc1ccc(Cl)cc1)N1CCN(Cc2cnc3ccccc3c2)CC1 [Example 101, 4-Quinolin-3-ylmethyl-piperazine-1-carboxylic acid (4-chloro-phenyl)-amide] | 360
